The target in experiment [1] is T1, PstA (PstASA, His-PstASA) (Staphylococcus aureus, UniProt A0A0H2XH20, T43A).
T1 construct: gene SAUSA300_0460
In words: biochemical.

Experiment [2] has as its target T2, PstA (PstASA, His-PstASA) (Staphylococcus aureus, UniProt A0A0H2XH20).
T2 construct: gene SAUSA300_0460; sites at monomer-monomer interfaces
The experiment is described as follows: DRaCALA, purified protein, […]-labelled ligand on nitrocellulose. Format: binding.

Experiment [3] has as its target T3, PstA (PstASA, His-PstASA) (Staphylococcus aureus, UniProt A0A0H2XH20, D12A).
T3 construct: gene SAUSA300_0460
The experiment is described as follows: biochemical.

Experiment [4] has as its target T4, PstA (PstASA, His-PstASA) (Staphylococcus aureus, UniProt A0A0H2XH20, K2A).
T4 construct: gene SAUSA300_0460
In words: biochemical.

The target in experiment [5] is T5, PstA (PstASA, His-PstASA) (Staphylococcus aureus, UniProt A0A0H2XH20, N41A).
T5 construct: gene SAUSA300_0460
The experiment is described as follows: biochemical.

Experiment [6] addresses T6, PstA (PstASA, His-PstASA) (Staphylococcus aureus, UniProt A0A0H2XH20, R67A).
T6 construct: gene SAUSA300_0460
In words: biochemical.

Experiment [7] addresses N-terminally His-tagged PstA protein from S. aureus (His-PstASA) (S. aureus). In words: SEC-MALS; 100 uM purified His-PstASA in 50 mM Tris-HCl pH 7.5, 200 mM NaCl, 5% glycerol; Superdex 10/300 column coupled to a multiangle laser light scattering detector. (In general: Size exclusion chromatography separates by hydrodynamic size, large species first.)

As to `Nc1ncnc2c1ncn2[C@@H]1O[C@@H]2COP(=O)(O)O[C@H]3[C@@H](O)[C@H](n4cnc5c(N)ncnc54)O[C@@H]3COP(=O)(O)O[C@H]2[C@H]1O` [c-di-AMP], the Kd (commonly the concentration at which binding is half-saturated) stood at 1800 ± 200 nM in experiment [1]; 370 ± 30 nM in experiment [2]; 320 ± 50 nM in experiment [3]; 340 ± 40 nM in experiment [4]; 9600 ± 2300 nM in experiment [5]; 480 ± 40 nM in experiment [6].
Consider “N-terminally His-tagged PstA protein from S. aureus (His-PstASA) (natural protein)”, for which the stoichiometry N – broadly, the number of molecules, sites or subunits per partner or assembly – in experiment [7] was 3.
